According to patent US10918727B2, “Peptide with ability to penetrate cell membrane” (ICURE BNP CO., LTD., priority 2016, dated 2021):
Non-standard residues stand in square brackets, D forms with d. No end group written: not given here.

Experiments:
[1] = Body weight-reducing effect of intranasal TCTP-PTD 13-[D-Leu-4]-OB3; format: in vivo, mouse; conditions: for body weight after 10 days compared with PBS or OB3 / rate of increase in body weight for 10 days compared with PBS or OB3: ICR mice, intranasal 2 mg/kg once each day for 10 days
From the text: A peptide (SEQ ID NO: 124) comprising [D-Leu-4]-OB3 linked to L-PTD 13 or D-PTD 13 by a GG linker was designed. Furthermore, peptides (SEQ ID NO: 125, SEQ ID NO: 126 and SEQ ID NO: 127, respectively) comprising [D-Leu-4]-OB3 linked to each of D-TCTP-PTD 13M1, D-TCTP-PTD 13M2 or D-TCTP-PTD 13M3 by a GG linker were designed. The peptides were synthesized with a purity of 90% or higher by Peptron Inc.
4-week-old male ICR mice were used as experimental animals and divided into the following groups, each consisting of 7 animals: PBS, [D-Leu-4]-OB3, L-PTD 134D-Leu-41-OB3, and D-PTD 134D-Leu-41-OB3 groups. Each of [D-Leu-4]-OB3, L-PTD 134D-Leu-41-OB3 and D-PTD 13-[D-Leu-4]-OB3 was administered intranasally to each mouse at a dose of 2 mg/kg once each day for 10 days at a uniform time point, while a change in the body weight of each of the experimental animals was measured.

[2] = Appetite-inhibiting effect (food intake) of intranasal TCTP-PTD 13-[D-Leu-4]-OB3; format: in vivo, mouse; conditions: ICR mice, intranasal 2 mg/kg; for cumulative food intake compared with PBS: measured every day for 10 days
Procedure: In order to examine whether or not the body weight-reducing effect confirmed in Example 7-2 has a connection with a decrease in food intake, PBS, [D-Leu-4]-OB3, L-PTD 13-[D-Leu-4]-OB3 or D-PTD 13-[D-Leu-4]-OB3 was administered intranasally at a dose of 2 mg/kg, and the food intake was measured everyday for 10 days.

[3] = system: human bronchial epithelial cell line BEAS-2B; assay: Cell membrane penetration of FITC-labeled L-/D-form TCTP-PTD 13 by flow cytometry; format: cell-based; conditions: BEAS-2B cells, 2.5 μM FITC-labeled peptide, 30 minutes
Procedure: The human bronchial epithelial cell line BEAS-2B was prepared, and the cell membrane penetration ability of the TCTP-PTD peptide according to the amino acid type was analyzed by flow cytometry. Specifically, BEAS-2B cells were seeded on a 6-well plate at a density of 8×10^5 cells/well, and then cultured in cell culture medium (BEGM) for 24 hours. After 24 hours of cell culture, each well was washed twice with PBS, and then each well was treated with FITC-labeled L-form TCTP-PTD 13 (hereinafter referred to as L-PTD 13; SEQ ID NO: 27) or FITC-labeled D-form TCTP-PTD 13 (hereinafter referred to as D-PTD 13; SEQ ID NO: 27) diluted in cell culture medium such that the concentration of each TCTP-PTD would be 2.5 μM. 30 minutes after the cells were treated with the two kinds of TCTP-PTD 13, the cells were isolated from each well by use of 0.25% trypsin, and then washed 6 times with cold PBS to remove TCTP-PTD from the cell surface.

[4] = system: hair follicle and dermis of the skin (male BALB/c mice); assay: Hair follicle penetration of FITC-labeled TCTP-PTD after transdermal administration (fluorescence microscopy); format: in vivo, mouse; conditions: 100 μl of 100 μM FITC-labeled peptide on 1 cm^2, 2 hours
Procedure: (§1) Male BALB/c mice (7-8-week-old) were prepared, and the abdominal region of the mice was shaved. Next, the mice were anesthetized by intraperitoneal injection of urethane (1.2-1.5 g/kg), and then 100 μl of each TCTP-PTD peptide solution was applied to the abdominal region of each mouse so as to be administered transdermally. Each of the peptide solutions was applied to an area of 1 cm^2.
2 hours after transdermal administration, the skin tissue was collected, fixed with 10% formalin for about 24 hours, and then treated with 30% sucrose solution for 4 hours. The pretreated skin tissue was immersed in OCT-compound, and then treated with liquid nitrogen to prepare a frozen block. The skin tissue was sectioned to a thickness of 20 μm by use of a cryotome and attached to a slide. The slide having the skin tissue attached thereto was washed five times with PBS, and then the nucleus was stained with DAPI (blue fluorescence).
The amino terminus of L-PTD 13 or D-PTD 13 was labeled with FITC (green fluorescence), and then each PTD peptide was dissolved in PBS (phosphate buffered saline, pH 7.4) to a final concentration of 100 μM.
as §1, with “of the FITC-labeled L-PTD 13 or D-PTD 13” for “TCTP-PTD peptide”

[5] = system: cervical cancer cell line HeLa; assay: Cell membrane penetration of FITC-labeled TCTP-PTD peptides in HeLa cells (fluorescence reader); format: cell-based; conditions: 10 μM FITC-labeled peptide, 15 minutes
Procedure: The cervical cancer cell line HeLa was prepared. To detect TCTP-PTD accumulated in cells after passage through the cell membrane, the N-terminus of the synthesized peptide was labeled with FITC (fluorescein isothicyanate). Then, the cervical cancer cell line Hela was treated with 10 μM of the FITC-labeled TCTP-PTD of SEQ ID NO: 18, SEQ ID NO: 22, SEQ ID NO: 24 or SEQ ID NO: 27 for 15 minutes. After completion of the incubation, the cells were washed three times with PBS to remove FITC-TCTP-PTD remaining on the cell membrane of the HeLa cells. 500 μl of PBS was added, and then the fluorescence intensity of the FITC was measured with a fluorescence reader at 495 nm and 517 nm.

[6] = system: type 2 diabetic model mice (db/db mice); assay: Blood glucose-lowering effect of intranasal TCTP-PTD/Ex-4 mixture in type 2 diabetic model mice after i.p. glucose; format: in vivo, mouse; conditions: Ex-4 10 μg/kg, 10 μM Ex-4 + 20 μM peptide, glucose 2.5 g/kg i.p., monitored 240 minutes
Procedure: Male db/db mice weighing 31-34 g were used as experimental animals. The mice were fasted overnight, and then the blood glucose level in the mice were measured using a blood glucose meter.
20 minutes after anesthesia, each of the prepared Ex-4/TCTP-PTD mixtures was administered intranasally to the mice (Ex-4 dose: 10 μg/kg), and a control group was administered intranasally with the same amount of Ex-4, and a negative control group was administered intranasally with the same amount of PBS. After 15 minutes, glucose (2.5 g/kg) was injected intraperitoneally to the mice, and the blood glucose level in the mice was monitored for 240 minutes.

[7] = system: type 1 diabetic model mice (STZ-induced male ICR mice); assay: Blood glucose-lowering effect of intranasal TCTP-PTD/insulin mixture in type 1 diabetic model mice; format: in vivo, mouse; conditions: insulin 2 IU/kg, insulin:peptide 1:2, monitored 240 minutes
Procedure: Streptozotocin (STZ) was injected intraperitoneally into male ICR mice (body weight: 33-34.5 g) four times (doses: 100, 50, 50 and 50 mg/kg) at 2-day intervals to induce type 1 diabetes. At 7 days after last administration of STZ, mice having a blood glucose level of 300-350 mg/dL were selected as experimental animals.

[8] = Plasma insulin concentration after intranasal administration of insulin/TCTP-PTD mixtures (ELISA); conditions: rats, insulin 0.5 IU/kg, 50 μM insulin + 100 μM peptide, peptides compared with SEQ ID NO: 27
From the text: Male Wistar rats weighing 180-190 g were used as experimental animals and anesthetized in the same manner as described above.

[9] = system: normal male white Wistar rats; assay: Pharmacodynamic profile of nasal insulin formulations in normal white rats (blood glucose); format: in vivo, rat; conditions: subcutaneous
Procedure: After design of the nasal insulin formulations, evaluation of the pharmacodynamic profile of each nasal insulin formulation was performed in normal white rats. Specifically, male white Wistar rats weighing 165-200 g were used as experimental animals. For accuracy of evaluation, the […] were fasted overnight, and then white rats having a blood glucose level of 90-120 mg/dL in the fasted state were used in the experiment. To calculate PA (pharmacological availability), the initial blood glucose level was taken as 100%. To administer the nasal insulation formulations, the mice were anesthetized by intraperitoneal administration of the anesthetic sodium pentobarbital (dose: 65 mg/kg).

[10] = system: type 1 diabetic white rats (alloxan-induced); assay: Pharmacodynamic profile of nasal insulin formulations in type 1 diabetic (alloxan) rats; format: in vivo, rat; conditions: type 1 diabetic rats
Procedure: Alloxan was injected intraperitoneally to experimental white rats to induce type 1 diabetes. One week after alloxan administration, white rats having a blood glucose level of 230-300 mg/dL were used as experimental animals.

[11] = Pharmacokinetic profile of nasal insulin formulations (plasma insulin); conditions: rats
[12] = system: nasal mucosal membrane (female BALB/c mice); assay: Penetration of OVA into nasal mucosal epithelial cells after intranasal OVA/TCTP-PTD 13 mixture (immunofluorescence); format: in vivo, mouse; conditions: intranasal 10 μl, OVA 10 μM (4.5 μg), OVA:PTD 1:30, 15 minutes
Procedure: First, OVA and L-PTD 13 or D-PTD 13 were dissolved in PBS (phosphate buffered saline, pH 7.4) such that the concentrations of OVA and TCTP-PTD would be 10 μM and 300 μM, respectively, thereby preparing mixtures. Herein, OVA and TCTP-PTD were mixed at a molar ratio of 1:30.
Female BALB/c mice (6-8-week-old) were anesthetized by intraperitoneal injection of 50 mg/kg of zoletil and 10 mg/kg of xylazine.
10 μl of OVA, the OVA/D-PTD 13 mixture or the OVA/L-PTD 13 mixture was administered intranasally to each of the anesthetized mice. A control group was administered with 4.5 μg of OVA alone.
15 minutes after intranasal administration, the nasal tissue was collected. The collected nasal tissue was fixed with 10% formalin for about 24 hours, and then decalcified using 4 M formic acid at 4° C. for 30 hours. After decalcification, the nasal tissue was embedded in paraffin according to a conventional method, sectioned to a thickness of 5 μm, and attached to a slide. […] After incubation with the primary antibody, the slide was washed with PBS, and then incubated with a 1:100 dilution of secondary antibody (green fluorescence; Alexa 488-conjugated secondary antibodies, Invitrogen) at room temperature for 1 hour. The slide was washed with PBS, and then the nucleus was stained with DAPI (blue fluorescence), followed by observation with a fluorescence microscope.

## D-PTD 13-[D-Leu-4]-OB3: peptide (SEQ ID NO: 124) comprising [D-Leu-4]-OB3 linked to D-PTD 13 by a GG linker ([dM][dI][dI][dF][dR][dA][dL][dI][dS][dH][dK][dK]GGSCS[dL]PQT)
[1]
  body weight after 10 days compared with PBS or OB3: decreased
  rate of increase in body weight for 10 days compared with PBS or OB3: lower
[2]
  total food intake after 10 days of administration: decreased
  cumulative food intake compared with PBS: decreased continuously

## D-PTD 13: D-form TCTP-PTD 13; SEQ ID NO: 27 ([dM][dI][dI][dF][dR][dA][dL][dI][dS][dH][dK][dK])
[3]
  ability to penetrate the cell membrane (flow cytometry): excellent ability to penetrate the cell membrane
[4]
  penetration to hair follicle and dermis of the skin: reached the hair follicle and dermis of the skin
[1]; peptide linked to [D-Leu-4]-OB3, intranasal 2 mg/kg, 10 days, results of Examples 7-2 and 7-3 together
  body weight-reducing and appetite-inhibiting effects, D-form vs L-form: better effects than L-PTD 13

## L-PTD 13-[D-Leu-4]-OB3: peptide (SEQ ID NO: 124) comprising [D-Leu-4]-OB3 linked to L-PTD 13 by a GG linker (MIIFRALISHKKGGSCS[dL]PQT)
[1]
  body weight after 10 days compared with PBS or OB3: decreased
  rate of increase in body weight for 10 days compared with PBS or OB3: lower
[2]
  total food intake after 10 days of administration: decreased
  cumulative food intake compared with PBS: decreased continuously

## L-PTD 13: L-form TCTP-PTD 13; SEQ ID NO: 27 (MIIFRALISHKK; PTD #27)
[3]
  ability to penetrate the cell membrane (flow cytometry): excellent ability to penetrate the cell membrane
[4]
  penetration to hair follicle and dermis of the skin: reached the hair follicle and dermis of the skin

## SEQ ID NO: 1: variant TCTP-PTD peptide (LIIFRALISHKK; PTD #1)
[4]
  penetration to hair follicle and dermis of the skin: reached the hair follicle and dermis of the skin

## SEQ ID NO: 12: variant TCTP-PTD peptide (MIIFRLAAYHKK; PTD #12)
[4]
  penetration to hair follicle and dermis of the skin: reached the hair follicle and dermis of the skin

## SEQ ID NO: 17: variant TCTP-PTD peptide (MIIFRIAAYPKK; PTD #17)
[4]
  penetration to hair follicle and dermis of the skin: reached the hair follicle and dermis of the skin

## SEQ ID NO: 27: TCTP-PTD peptide of Korean Patent No. 10-0859972, basis of the variants (MIIFRALISHKK; PTD #27)
[5]
  fluorescence of FITC-labeled peptide in cells (cell membrane penetration): high level of fluorescence
[6]
  blood glucose level after i.p. glucose / blood glucose-lowering effect: increase the blood glucose-lowering effect of Ex-4

## insulin
[7]
  change in blood glucose level: no significant change in the blood glucose level
[8]
  blood insulin concentration / insulin uptake: little or no change in the blood insulin concentration
[9]; insulin 0.5 IU/kg
  AAC 0-180 min (area above the blood glucose level-time curve): 2560
[9]; insulin 0.5 IU/kg (reference)
  PA % (pharmacological availability): 100%
[10]; nasal, insulin 2 IU/kg
  AAC 0-240 min (area above the blood glucose level-time curve): 2156.65 ± 1070.68
[10]; subcutaneous, insulin 1 IU/kg
  AAC 0-240 min (area above the blood glucose level-time curve): 26897.33 ± 772.31
[10]; subcutaneous, insulin 1 IU/kg (reference)
  PA %: 100%
[11]; nasal, insulin 5 IU/kg, listed as Free insulin
  BA % (relative bioavailability vs s.c. insulin): 3.34 ± 0.38%
[11]; subcutaneous, insulin 0.25 IU/kg (reference)
  BA %: 100%

## ovalbumin [OVA (ovalbumin), 45 kDa, model antigen for vaccination]
[12]
  OVA fluorescence inside the nasal mucosal membrane: not substantially observed inside the nasal mucosal membrane
